Experimental data reported in the NIST ThermoML archive (doi:10.1016/j.jct.2013.08.021).
± gives the expanded uncertainty stated by the source.

Conditions: for viscosity / speed of sound / mass density: 101 kPa, Liquid; for viscosity: Capillary tube (Ostwald / Ubbelohde) method; for speed of sound: Sing-around technique in a fixed-path interferometer; for mass density: Vibrating tube method

Which viscosity (293.15 K) does the source give for `CCC[N+]1(C)CCCC1.O=S(=O)([N-]S(=O)(=O)C(F)(F)F)C(F)(F)F` here?
Its viscosity is 66.61 ± 1.4 mPa·s.

What about the speed of sound (293.15 K) of the same compound?
The speed of sound was 1281.9 ± 1.5 m/s.

What about the mass density (293.15 K) of the same compound?
Its mass density is 1432.42 ± 0.61 kg/m3.

What about the viscosity (298.15 K) of the same compound?
Its viscosity is 49.35 ± 1 mPa·s.

And the speed of sound (298.15 K)?
Its speed of sound is 1270.6 ± 1.5 m/s.

What about the mass density (298.15 K) of the same compound?
Its mass density is 1427.86 ± 0.6 kg/m3.

And the viscosity (303.15 K)?
Its viscosity is 38.52 ± 0.81 mPa·s.

What about the speed of sound (303.15 K) of the same compound?
The speed of sound was 1259 ± 1.5 m/s.

What about the mass density (303.15 K) of the same compound?
The mass density was 1423.37 ± 0.6 kg/m3.

What about the viscosity (308.15 K) of the same compound?
Its viscosity is 30.93 ± 0.65 mPa·s.

And the speed of sound (308.15 K)?
Its speed of sound is 1249.1 ± 1.5 m/s.

What about the mass density (308.15 K) of the same compound?
Its mass density is 1418.86 ± 0.59 kg/m3.

And the viscosity (313.15 K)?
The viscosity was 26.17 ± 0.55 mPa·s.

What about the speed of sound (313.15 K) of the same compound?
Its speed of sound is 1238.2 ± 1.5 m/s.

And the mass density (313.15 K)?
The mass density was 1414.37 ± 0.59 kg/m3.

And the viscosity (318.15 K)?
Its viscosity is 22.39 ± 0.47 mPa·s.

What about the speed of sound (318.15 K) of the same compound?
The speed of sound was 1227.4 ± 1.5 m/s.

And the mass density (318.15 K)?
Its mass density is 1409.9 ± 0.58 kg/m3.

And the viscosity (323.15 K)?
The viscosity was 19.31 ± 0.41 mPa·s.

What about the speed of sound (323.15 K) of the same compound?
Its speed of sound is 1216.9 ± 1.5 m/s.

And the mass density (323.15 K)?
The mass density was 1405.45 ± 0.58 kg/m3.

And the viscosity (328.15 K)?
Its viscosity is 17.13 ± 0.36 mPa·s.

What about the speed of sound (328.15 K) of the same compound?
Its speed of sound is 1205.9 ± 1.5 m/s.

And the mass density (328.15 K)?
Its mass density is 1401.01 ± 0.58 kg/m3.

What about the viscosity (333.15 K) of the same compound?
Its viscosity is 15.07 ± 0.32 mPa·s.

What about the speed of sound (333.15 K) of the same compound?
Its speed of sound is 1196.4 ± 1.5 m/s.

And the mass density (333.15 K)?
The mass density was 1396.59 ± 0.57 kg/m3.

And the viscosity (338.15 K)?
The viscosity was 13.36 ± 0.28 mPa·s.

What about the speed of sound (338.15 K) of the same compound?
Its speed of sound is 1186.3 ± 1.5 m/s.

And the mass density (338.15 K)?
Its mass density is 1392.17 ± 0.57 kg/m3.

What about the viscosity (343.15 K) of the same compound?
Its viscosity is 11.93 ± 0.25 mPa·s.

And the speed of sound (343.15 K)?
Its speed of sound is 1176.2 ± 1.5 m/s.

What about the mass density (343.15 K) of the same compound?
The mass density was 1387.77 ± 0.56 kg/m3.

What about the Normal melting temperature (Crystal, DTA) of the same compound?
Its Normal melting temperature is 11.00 ± 2 °C.
